The values that follow are results of earlier work, collected in patent publication US20240374879A1, “METHODS AND COMPOSITIONS TO REDUCE CELLULAR DEPOSITION, AND HYDROCEPHALUS SHUNT FAILURE” (Wayne State University, priority 2021, published 2024).

The data set addresses T1, TLR-4 (Mus musculus, UniProt Q9QUK6).
T1 sequence (Q9QUK6 26-835): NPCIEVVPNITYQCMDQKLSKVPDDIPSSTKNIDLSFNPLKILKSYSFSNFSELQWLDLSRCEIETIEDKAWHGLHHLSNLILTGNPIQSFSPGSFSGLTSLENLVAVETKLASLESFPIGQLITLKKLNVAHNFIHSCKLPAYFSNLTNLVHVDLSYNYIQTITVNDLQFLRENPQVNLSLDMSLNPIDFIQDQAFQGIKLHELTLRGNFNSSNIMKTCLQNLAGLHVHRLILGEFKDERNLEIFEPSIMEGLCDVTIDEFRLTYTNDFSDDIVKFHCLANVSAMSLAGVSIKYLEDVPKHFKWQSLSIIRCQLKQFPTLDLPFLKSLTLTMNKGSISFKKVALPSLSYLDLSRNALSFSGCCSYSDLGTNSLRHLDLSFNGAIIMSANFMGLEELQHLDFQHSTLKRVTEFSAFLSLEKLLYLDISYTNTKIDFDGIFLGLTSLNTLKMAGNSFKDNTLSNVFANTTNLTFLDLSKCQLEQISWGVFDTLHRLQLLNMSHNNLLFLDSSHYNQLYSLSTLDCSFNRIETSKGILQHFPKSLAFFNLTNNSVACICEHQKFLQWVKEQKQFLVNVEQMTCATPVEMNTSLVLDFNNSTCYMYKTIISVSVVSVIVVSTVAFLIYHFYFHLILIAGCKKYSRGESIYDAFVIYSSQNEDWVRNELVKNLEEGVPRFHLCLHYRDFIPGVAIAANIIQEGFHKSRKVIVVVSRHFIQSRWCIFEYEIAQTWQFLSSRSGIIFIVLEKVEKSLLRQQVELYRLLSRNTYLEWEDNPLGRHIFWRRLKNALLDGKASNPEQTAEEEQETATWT
Conditions: 50 mg/kg; four hours post-treatment; cited from earlier work.

Consider `O=C(O)CC1CC(c2ccccc2)=NO1` (stereo not shown) [GIT 27, 4,5-Dihydro-3-phenyl-5-isoxazoleacetic acid], for which the edema entry was “significantly reduced”.
